Results: patent US20160346398A1, “CROSS-LINKED HYALURONIC ACID FOR DRUG DELIVERY AND PHARMACEUTICAL PREPARATION USING SAME” (ALURON BIOPHARMA INC., priority 2015, published 2016)
Like-named read-outs stand apart in the source and are kept apart here.

Columns and labels:
[1] = cited from earlier work
in vivo [2] = settings: rat
Protocol: Quantification was performed using the selective MRM mode on a short LC column using a fast gradient.
Blood samples were collected at time 0, 30 min and 1, 3, 6, 24, 30 and 48 hrs. All plasma samples were collected after centrifugation and frozen at −80° C. Plasma was transferred on dry ice to the Platform of Biopharmacy and was kept at −80° C. until extraction and LC/MS/MS analysis (Table 1).
The plasma tubes were thawed on ice. Plasma samples were vortex mixed and 20 μL were pipetted into Eppendorf tubes. Proteins were precipitated by the addition of 40 μL acetonitrile. The tubes were vortex mixed and centrifuged for 4.5 min at 13,000 rpm. 20 μL of supernatant was transferred into a HPLC 96-well plate, and mixed with two volumes of water containing 5 mM ammonium acetate. The calibration curve was prepared in blank SD rat plasma, by serial dilution from 10 μM to […] Standard plasma samples were treated as described above.
Chromatography was performed on a Phenomenex Luna C8(2) 30×2 mm (5 μm) using gradient elution at 0.7 mL/min. The injection volume was 4 μL. The total acquisition time was 4.5 min. Samples were analyzed in selective MRM mode using LC-MS/MS. Peak area ratios for calibration curves and quantification of samples were calculated using Analyst software version 1.6.2. Calibration curves were plotted using the peak area ratios analyte/internal standard versus nominal analyte concentration, using a quadratic weighted 1/x regression.

[3] = rat, in vivo
in vivo [4] = settings: male, rat, po, 50 mg/kg, plasma Raloxifene

Compound | water solubility (in words) [1] | Cmax (in vivo [2]; male, SD (Sprague-Dawley), po, 5 mg/kg, Cmax, plasma Letrozole) [nM] | Tmax (in vivo [2]; male, SD (Sprague-Dawley), po, 5 mg/kg, plasma Letrozole) [h] | Tmax (in vivo [2]; male, SD, po, 5 mg/kg, plasma Letrozole) [h] | drug toxicity after combination with HA (in vivo [2]) | bioavailability after combination with HA (in vivo [2]; po) | drug toxicity after combination with HA [3] | bioavailability after combination with HA ([3]; po) | Cmax (in vivo [4]; SD (Sprague-Dawley), Cmax) [nM] | Tmax (in vivo [4]; SD (Sprague-Dawley)) [h] | Tmax (in vivo [4]; SD) [h]
CCc1c2c(nc3ccc(OC(=O)N4CCC(N5CCCCC5)CC4)cc13)-c1cc3c(c(=O)n1C2)COC(=O)[C@]3(O)CC [Irinotecan] | good water solubility | – | – | – | – | – | – | – | – | – | –
N#Cc1ccc(C(c2ccc(C#N)cc2)n2cncn2)cc1 [Letrozole] | very poor water solubility | 4240 | 4.5 | 6 | no detectable augmentation of the drug toxicity | increased | – | – | – | – | –
O=C(c1ccc(OCCN2CCCCC2)cc1)c1c(-c2ccc(O)cc2)sc2cc(O)ccc12 [Raloxifene] | very poor water solubility | – | – | – | – | – | no detectable augmentation of the drug toxicity | increased | 190 | 4.5 | 3
